The test system of test [1] is mouse. As to the kind of experiment: Tactile allodynia produced by nitroglycerin (migraine model, mouse). Type of test: in vivo. The conditions noted are these: route sc, nitroglycerin 10 mg/kg ip, p < 0.05 vs vehicle. The method, then: Compounds were tested for efficacy in rodent models of nitroglycerine induced migraine. In this model both rats and mice can be induced to have a behavioral response consistent with the progression of a migraine attack by the intraperitoneal injection of nitroglycerin. In this test mice or rats (n=8/group) are given an intraperitoneal injection of nitroglycerin at 10 mg/kg. After 90 minutes the animals are subcutaneously dosed with test compound. A measurement of mechanical allodynia will be obtained using the up/down method with seven von Frey monofilaments. There is a specific series used for rat and mouse. Each monofilament is delivered to the hind paw for approximately 1-2 seconds. If there is a response, the next lower force will be delivered. This procedure will be performed until no response was made at the highest force or until four stimuli are administered following the initial response. The 50% paw withdrawal threshold for the hind paw will be calculated using the following formula: [Xth]log=[vFr]log+ky where [vFr] is the force of the last von Frey used, k is the average interval (in log units) between the von Frey monofilaments, and y is a value that depends upon the pattern of withdrawal responses. Testing for tactile sensitivity will be performed and a withdrawal value will be assigned as the tactile sensitivity (expressed in grams of force required to elicit a response) for the injected paw for each animal. Data is presented as the mean grams required to produce a hind paw withdrawal from the von Frey stimulus. […] Compounds found to be effective in this model of migraine at the doses indicated, although other doses may also be active. Other compounds described herein were not necessarily tested, but are expected to be able have some level of efficacy.

In test [2] the test system is male c57bl6J mice. As to the kind of experiment: Reversal of tactile allodynia produced by repeat dosing of sumatriptan (medication overuse headache). Type of test: in vivo, mouse. The conditions noted are these: 10 mg/kg s.c., 30 min prior to testing; sumatriptan 0.6 mg/kg i.p. daily for 11 days; FIG. 3. The method, then: Compounds were evaluated for their ability to treat Medication Overuse Headache (“MOH”). Assessment of reversal of tactile allodynia produced by repeat dosing of sumatriptan in mice: Mice (44 male c57bl6J mice, n=8-9/group) were habituated for 2 days on testing rack prior to injections. Mice were treated with vehicle (VEH-VEH (saline) VEH-B1049 (10% BCD-saline)) or sumatriptan (SUMA) (0.6 mg/kg, i.p.) daily for 11 days. Mechanical sensitivity was measured as the 50% withdrawal threshold to manual von Frey hair stimulation on day 12. Baseline measurement were taken 24 hours after final SUMA/VEH injection and 3 h later, post-drug measurements were taken after dosing with B1049 (10 mg/kg, s.c., 30 min prior to testing) or SNC80 (10 mg/kg, i.p., 45 min prior to testing). (***p<0.001 compared to post-drug SUMA-VEH). The results are illustrated in FIG. 3.

Each structure is given as a SMILES string.

As to `COCCOc1cccc([C@@H]2CCN(CCn3cccc3)[C@H](C)[C@H]2COc2ccc3c(c2)C(=O)NC3)c1` (relative stereo) [Compound B1049, (−)-6-{[(trans, trans)-4-[3-(2-methoxyethoxy)phenyl]-2-methyl-1-[2-(1H-pyrrol-1-yl)ethyl]piperidin-3-yl]methoxy}-2,3-dihydro-1H-isoindol-1-one], the “Active Migraine Doses” value in test [1] is on record as ≤10 mg/kg. In addition, in test [2], the “reversal of tactile allodynia produced by repeat dosing of sumatriptan” value is listed as “able to reverse tactile allodynia produced by repeat dosing of sumatriptan”.
